We go through two compounds from article PMC6352943, “Novel pyrazolo[3,4-d]pyrimidines: design, synthesis, anticancer activity, dual EGFR/ErbB2 receptor tyrosine kinases inhibitory activity, effects on cell cycle profile and caspase-3-mediated apoptosis” (Journal of Enzyme Inhibition and Medicinal Chemistry, 2019).

By melting point is commonly meant the temperature of the solid-liquid transition.

Data set [1] has as its system ACHN. The data set is described as follows: MTT cell viability assay. The format is cell-based, human. The following applies: Homo sapiens; ACHN renal cancer, MTT, 48 h, mean ± SD of three experiments; read-out: IC50 (concentration required for 50% inhibition of cell viability). As for the experimental part: (§1) Cell Line cells were obtained from American Type Culture Collection, cells were cultured using Dulbecco's Modified Eagle's medium (DMEM) (Invitrogen/Life Technologies) supplemented with 10% foetal bovine serum (FBS) (Hyclone), 10 μg/mL of insulin (Sigma), and 1% penicillin-streptomycin. All of the other chemicals and reagents were from Sigma, or Invitrogen. Plate cells (cells density 1.2 – 1.8 × 10,000 cells/well) in a volume of 100 µL complete growth medium and 100 μL of the tested compound per well in a 96-well plate for 24 h before the MTT assay.
(§2) Remove culture medium to a centrifuge tube. […] Add 2.0 to 3.0 ml of Trypsin EDTA solution to flask and observe cells under an inverted microscope until cell layer is dispersed. Add 6 to 8 ml of complete growth medium and aspirate cells by gently pipetting. Transfer the cell suspension to the centrifuge tube with the medium and centrifuge for 5 to 10 min. Discard the supernatant. Resuspend the cell pellet in fresh growth medium. Add appropriate aliquots of the cell suspension to new culture vessels. Incubate cultures at 37 °C for 24 h. After treatment of cells with the serial concentrations of the compound to be tested incubation is carried out for 48 h at 37 °C, then the plates are to be examined under the inverted microscope and proceed for the MTT assay.
(§3) The 3–(4, 5-dimethylthiazol-2-yl)-2,5-diphenyltetrazolium bromide (MTT) method[30] of monitoring in vitro cytotoxicity is well suited for use with multiwell plates. The assessment of cell population growth is based on the capability of living cells to reduce the yellow product MTT to a blue product, formazan, by a reduction reaction occurring in the mitochondria. The five cell lines were incubated for 24 h in 96-microwell plates. The number of living cells in the presence or absence (control) of the various test compounds is directly proportional to the intensity of the blue colour, measured by spectrophotometry using (ROBONIK P2000 Spectrophotometer) at a wavelength of 570 nm. Measure the background absorbance of multiwell plates at 690 nm and subtract from the 570 nm measurement. Five concentrations ranging from 0.01 μM to 100 μM (with semi-log decrease in concentration) were tested for each of the compounds under study. Each experiment was carried out in triplicate. The IC50 values [the concentration required for 50% inhibition of cell viability] were calculated using sigmoidal dose response curve-fitting models.
On the technique in general: Formazan colour is commonly taken as a measure of viable cells.

In data set [2] the test system is NCI-H460. The data set is described as follows: MTT cell viability assay. It is filed as cell-based, human. The settings on record: Homo sapiens; NCI-H460 lung cancer, MTT, 48 h, mean ± SD of three experiments; read-out: IC50 (concentration required for 50% inhibition of cell viability). As for the experimental part:
as §1, §2, §3

Data set [3] relates to OVCAR-4. In words: MTT cell viability assay. It is filed as cell-based, human. The settings on record: Homo sapiens; OVCAR-4 ovarian cancer, MTT, 48 h, mean ± SD of three experiments; read-out: IC50 (concentration required for 50% inhibition of cell viability). As for the experimental part: as §1, §2, §3

Structures are written as SMILES.

With `Cc1nn(-c2ccc(F)cc2)c2ncnc(NN=Cc3ccncc3)c12` [Compound 10d, 1–(4-Fluorophenyl)-3-methyl-4–(2-(pyridin-4-yl-methylidene) hydrazinyl)-1H-pyrazolo[3,4-d]pyrimidine], the melting point was 262 to 264 °C.

Regarding `C#Cc1cccc(Nc2ncnc3cc(OCCOC)c(OCCOC)cc23)c1` [Erlotinib, reference compound], the results for the IC50 in data set [1], in data set [2] and in data set [3] were 12.4 ± 1.88 µM, 8.36 ± 0.69 µM and 2790 ± 410 nM, respectively.
